Experimental findings from ChEMBL document CHEMBL1201862, “PubChem BioAssay data set” (2004) are described below.

Some test systems named below: SK-OV-3; PC-3; MDA-MB-435; UACC-62; Malme-3M; SNB-75; NCI-H226; RXF 393; OVCAR-4; NCI-H23; DU-145; UACC-257; SF-539; SK-MEL-28; OVCAR-8; OVCAR-3; HOP-92; SW-620; SR; HL-60.
Common to all, as to test: DTP human tumour cell line panel, 48 h

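Results reflect a 48-hour exposure of cells in 96-well plates to compound at five concentrations. At the GI50, growth is halved.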 The source made the active and inactive calls. Rule as the data show it: active = GI50 up to about 1.1 µM and inactive = higher. Non-standard residues stand in square brackets, D forms with d. Residues, ends and D or L forms follow the SMILES beside them. ξ: configuration not given here. *: point of attachment. NMeF = CN[C@@H](Cc1ccccc1)C(=O)O; NMeN = CN[C@@H](CC(N)=O)C(=O)O; NMeV = CN[C@H](C(=O)O)C(C)C; ξNMeV = CNC(C(=O)O)C(C)C; Boc = CC(C)(C)OC(=O)*; ξNMeA = CNC(C)C(=O)O; ξV = CC(C)C(N)C(=O)O Bounds are passed on as bounds.

A word on the GI50: it is the concentration at which growth is held to half of that of the control. As for `CC(C)(C)c1cc(C(=O)C2Cc3ccccc3C(=O)O2)cc(C(C)(C)C)c1O` (stereo not given), the GI50 in the assay on SK-OV-3 is 24 µM (inactive); in the assay on PC-3, 11.7 µM (inactive); with MDA-MB-435, 10.7 µM (inactive); in the assay on UACC-62 it was 12.1 µM (inactive); with Malme-3M it was 14.6 µM (inactive); in the assay on SNB-75 it was 17.3 µM (inactive). Besides, the GI50 in the assay with NCI-H226 was 17.9 µM (inactive); with RXF 393, 12.1 µM (inactive); in the assay with OVCAR-4, 11 µM (inactive); in the assay on NCI-H23 it was 13.9 µM (inactive); in the assay on DU-145, 14.8 µM (inactive); in the assay on UACC-257 it was 11.6 µM (inactive). Also, the GI50 in the assay on SF-539 is 14.2 µM (inactive); in the assay with SK-MEL-28, 15.8 µM (inactive); in the assay on OVCAR-8 it was 10.4 µM (inactive); with OVCAR-3 it was 12.2 µM (inactive); in the assay with HOP-92, 18.2 µM (inactive); with SW-620, 10.3 µM (inactive). Moreover, the GI50 in the assay on SR was 3.59 µM (inactive); in the assay on HL-60, 4.88 µM (inactive).

Turning to `CC(=O)NC1=CC(=O)c2cc(C)cc(O)c2C1=O`, the GI50 in the assay with SK-OV-3 was > 63.2 µM (inactive); in the assay with PC-3, 12.5 µM (inactive); in the assay with MDA-MB-435, 0.721 µM (active); in the assay with UACC-62, 2.02 µM (inactive); with Malme-3M, 1.9 µM (inactive); in the assay on SNB-75 it was 18.7 µM (inactive). Further, the GI50 was 19.8 µM (inactive) with NCI-H226; 12.5 µM (inactive) in the assay on RXF 393; 8.49 µM (inactive) in the assay on OVCAR-4; 1.72 µM (inactive) in the assay on NCI-H23; 5.82 µM (inactive) in the assay on DU-145; 1.85 µM (inactive) in the assay with UACC-257. Besides, the GI50 with SF-539 was 6.84 µM (inactive); with SK-MEL-28, 0.822 µM (active); in the assay with OVCAR-8, 2.44 µM (inactive); in the assay with OVCAR-3, 2.65 µM (inactive); in the assay with HOP-92 it was 8.73 µM (inactive); in the assay on SW-620, 3.41 µM (inactive). Besides, the GI50 is 9.1 µM (inactive) in the assay with SR and 1.88 µM (inactive) in the assay on HL-60.

Consider `COc1cc2c(=O)cnoc2cc1O`, for which the GI50 in the assay with SK-OV-3, with PC-3, in the assay with MDA-MB-435, in the assay with UACC-62, in the assay on Malme-3M and in the assay with SNB-75 was > 100 µM (inactive) in each case. The GI50 in the assay on NCI-H226, in the assay with RXF 393, in the assay with OVCAR-4, in the assay with NCI-H23, in the assay with DU-145 and with UACC-257 was > 100 µM (inactive) throughout. Moreover, the GI50 in the assay on SF-539, in the assay with SK-MEL-28, in the assay on OVCAR-8, in the assay with OVCAR-3, with HOP-92 and in the assay with SW-620 was > 100 µM (inactive) each time. Besides, the GI50 in the assay with SR and in the assay on HL-60 was > 100 µM (inactive) throughout.

As to `OC(O)(C(F)(F)F)C(F)(F)F`, the GI50 with SK-OV-3, with PC-3, in the assay with MDA-MB-435, with UACC-62, with Malme-3M and in the assay with SNB-75 was > 100 µM (inactive) throughout. The GI50 in the assay with NCI-H226, with RXF 393, in the assay on OVCAR-4, in the assay with NCI-H23, with DU-145 and in the assay with UACC-257 was > 100 µM (inactive) in each case. Moreover, the GI50 in the assay on SF-539, in the assay on SK-MEL-28, with OVCAR-8, in the assay with OVCAR-3, in the assay with HOP-92 and with SW-620 was > 100 µM (inactive) in each case. Also, the GI50 in the assay on SR and in the assay with HL-60 was > 100 µM (inactive) each time.

Regarding `COC(=O)C(C)N(C)C(=O)[C@H](CC(N)=O)N(C)C(=O)[C@@H]1CCCN1C(=O)[C@H](C(C)C)N(C)C(=O)C(C(C)C)N(C)C(=O)[C@H](Cc1ccccc1)N(C)C(=O)C(NC(=O)OC(C)(C)C)C(C)C` (stereo not given in full) (Boc-[ξV][NMeF][ξNMeV][NMeV]P[NMeN][ξNMeA]-OMe), the GI50 in the assay on SK-OV-3 was 46.2 µM (inactive); in the assay on PC-3, 16.1 µM (inactive); in the assay on MDA-MB-435 it was 23.2 µM (inactive); with UACC-62 it was 10.2 µM (inactive); with Malme-3M, 17.8 µM (inactive); with SNB-75, 6.17 µM (inactive). Besides, the GI50 with NCI-H226 was 12.1 µM (inactive); in the assay with RXF 393 it was 12 µM (inactive); with OVCAR-4, > 50 µM (inactive); in the assay with NCI-H23, 17.6 µM (inactive); in the assay on DU-145 it was 28.8 µM (inactive); with UACC-257 it was 25.6 µM (inactive). Also, the GI50 in the assay with SF-539 was 28 µM (inactive); in the assay on SK-MEL-28, 18.2 µM (inactive); in the assay with OVCAR-8 it was 17.5 µM (inactive); in the assay with OVCAR-3, 12.5 µM (inactive); in the assay on HOP-92, 20.9 µM (inactive); in the assay with SW-620 it was 28.1 µM (inactive). The GI50 in the assay with SR was 5.15 µM (inactive); with HL-60, 15.6 µM (inactive).
